Laboratory results: paper PMC3517602 (PLoS ONE, 2012)

Target: T1, neuropeptide Y Y1 receptor (Y1R) (Homo sapiens, UniProt P25929)
T1 construct: gene NPY1R
T1 sequence (P25929 1-384): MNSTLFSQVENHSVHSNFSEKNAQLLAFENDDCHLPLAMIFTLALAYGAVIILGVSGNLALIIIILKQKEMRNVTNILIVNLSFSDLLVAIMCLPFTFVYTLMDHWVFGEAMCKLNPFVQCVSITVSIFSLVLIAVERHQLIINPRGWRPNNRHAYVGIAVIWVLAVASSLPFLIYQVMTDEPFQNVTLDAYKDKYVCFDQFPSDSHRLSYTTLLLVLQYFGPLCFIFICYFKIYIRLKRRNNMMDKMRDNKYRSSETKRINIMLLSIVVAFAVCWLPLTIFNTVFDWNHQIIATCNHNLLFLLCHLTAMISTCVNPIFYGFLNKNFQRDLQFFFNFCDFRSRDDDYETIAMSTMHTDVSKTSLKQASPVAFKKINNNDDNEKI
Experiment: radioligand saturation binding on whole MCF-7 (L) cells
Type: cell-based

Kd: 5 nM
Structure (SMILES): CCC(=O)/N=C(/N)NCCC[C@@H](NC(=O)C(c1ccccc1)c1ccccc1)C(=O)NCc1ccc(O)cc1 [[^3H]-UR-MK114]
